The source of these data is paper PMC6175062, “Gaining Mechanistic Insight Into Coproporphyrin I as Endogenous Biomarker for OATP1B‐Mediated Drug–Drug Interactions Using Population Pharmacokinetic Modeling and Simulation” (Clinical Pharmacology and Therapeutics, 2018).

Series [1] can be described thus: Population PK (turnover) model of CPI plasma and urine data with/without rifampicin. Format: in vivo, human. As for the experimental part: (§1) Individual plasma and urine data were obtained from a previous study in 12 healthy male subjects.6 The study was split into three occasions (OCC1–3) with a 7‐day washout period between OCC1 and 2 and OCC2 and 3. During each occasion, baseline CPI urine and plasma samples were collected (Figure S2). A single 600‐mg oral dose of RIF and a single 5‐mg oral dose of RSV were administered to the volunteers in OCC1 and OCC2, respectively. Finally, in OCC3 the same respective doses of RIF and RSV were coadministered to healthy volunteers. Plasma (RIF, RSV, and CPI) were collected at predefined timepoints over the 24‐h period following administration of RIF and/or RSV. Urine samples were collected over one time interval (−7 to 0 h) for the pretreatment sample (CPI monitored) and two subsequent intervals (0–7 h and 7–24 h) for posttreatment samples of CPI and RSV. The total number of plasma samples for modeling purposes were 276 (OCC1 = 144, OCC3 = 132), 420 (OCC1 = 144, OCC2 = 144, OCC3 = 132), and 264 (OCC2 = 132, OCC3 = 132) for RIF, CPI, and RSV, respectively, whereas the total number of urine samples were 102 (pretreatment = 34, posttreatment = 68) and 44 for CPI and RSV, respectively. No subjects enrolled in the clinical study had OATP1B1*5 or OATP1B1*15 mutations, associated with altered OATP1B1 activity.
(§2) Population PK models were developed sequentially for analysis of RIF, CPI, and RSV plasma and urine data using nonlinear mixed‐effects modeling software, NONMEM, with first‐order conditional estimation method.32 Statistical analysis, GOF plots, and other graphical analysis were conducted in MATLAB. The structural models for RIF and RSV (Supplementary Material) were selected based on population PK models available in the literature.34, 35 An exponential model was used to describe interindividual variability random‐effects parameters and IOV was evaluated for the model parameters; occasions were defined as periods of different visits following recruitment or washout periods. Covariates and random‐effects parameters (IIV and IOV) were retained in the models when there was a significant change in objective function and improvement in GOF plots. The incorporation of IIV and IOV in the models is shown in Equation 2: (2) θik=θ⋅e^ηi+κik where θ ik is the parameter for i^th individual on k^th occasion, θ is the population (typical individual) parameter, η i is the parameter that describes the deviation of the i^th individual parameter from the population (IIV), and k ik the parameter that describes the deviation of the i^th individual from the population in addition to η ik at the k^th occasion (IOV). Both random effect parameters (η ik and k ik) are assumed to be randomly distributed with a mean of zero and the variances are estimated during analysis. Proportional or additive or combination of proportional and additive residual error models were investigated for the residuals.
The plasma concentrations of the endogenous biomarker CPI were described using a turnover model (Equation 3).36 Simultaneous fitting of individual CPI plasma and urine data in the presence and absence of RIF was performed. In the final model, RIF inhibited biliary elimination (CL b,CPI) of CPI, whereas its renal clearance (CL R,CPI) and k syn were not affected. The rate of change of CPI plasma concentration under baseline and RIF condition is shown in Equations 3 and 4, respectively, whereas change in CPI amount in urine over time is shown in Equation 5. (3) dCCPI/dt=[ksyn−CLb,CPI⋅CCPI−CLR,CPI⋅CCPI]⋅1/VCPI (4) dCCPI/dt=[ksyn−CLb,CPI⋅CCPI/1+CRIF/KiCPI−CLR,CPI⋅CCPI]⋅1/VCPI (5) dUCPI/dt=CLR,CPI⋅CCPI where C CPI is its plasma concentration, U CPI is the CPI amount in urine, t is time, k syn is the zero‐order synthesis rate, Ki CPI is RIF transporter inhibition constant using CPI as a probe, V CPI is the volume of distribution of CPI and C RIF is RIF plasma concentration (linked to RIF model). […]

Series [2] can be described thus: Analysis of individual clinical CPI and rosuvastatin data (baseline, AUCR, fT). Particulars: for mean fraction eliminated via transporters (fT): from AUC with/without RIF (Equation 1). The format is in vivo, human. As for the experimental part:
as §1
Variability in baseline CPI plasma concentration between the three occasions was assessed and a one‐way analysis of variance (ANOVA) test was used to determine any significant differences. CPI and RSV plasma concentrations in the presence/absence of RIF were used to calculate the area under the curve (AUC) using the trapezoid function in MATLAB (MathWorks, Natick, MA, 2015a). Subsequently, the fold change in RSV and CPI AUC of each individual and the fraction eliminated by transporters (fT) for each probe was calculated (Equation 1). (1) fT=1−AUC(control)/AUC(+inhibitor)

Series [3] in a line: Population PK model of rosuvastatin plasma and urine data with/without rifampicin. The format is in vivo, human. As for the experimental part:
as §1, §2
Based on the available plasma and urine data, a two compartment first order absorption and elimination model was used to describe the PK of RSV in the subjects. The model was parameterised using [picture] , volume of distribution of central ( [picture] ) and peripheral compartments ( [picture] ), inter-compartmental clearance ( [picture] ), biliary ( [picture] ) and renal ( [picture] ) clearance parameters. Analogous to CPI, inhibition of [picture] by RIF was incorporated in the rate of change of RSV plasma concentration, whereas it was assumed that RIF has no effect on RSV renal elimination (Eq 2). The rate of change of RSV amount in urine over time is shown in Eq3.
where [picture] and [picture] are RSV concentrations in central (plasma) and peripheral compartments, [picture] is the amount in depot compartment, [picture] is RSV amount in the urine and [picture] is RIF transporter inhibition constant using RSV as a probe. […]

Another series deals with OATP. The following applies: cited from earlier work.

Values joined by “and” are separate entries in the source; they are usually repeats but may differ in a detail not shown here. Equal entries are not always repeated. Where two headings read alike, the source gives them in different places. Bounds are passed on as bounds.

Take coproporphyrin I [CPI]: the “maximal contribution of biliary clearance to total clearance” value in series [1] (basal conditions) was > 85% and 88%. Moreover, the “VCPI, population estimate (SE%)” value in series [1] (baseline) is given as 6.59 (12) L. For the same molecule, the “ksyn (zero-order synthesis rate), population estimate (SE%)” value in series [1] (endogenous CPI) was 12.7 (6) nM/h. In addition, the “VCPI (RIF), population estimate (SE%)” value in series [1] (in the presence of RIF) is on record as 3.4 (13) L. Moreover, in series [1] (in vivo), the “CLR,CPI (renal clearance), population estimate (SE%)” value is recorded as 1.64 (6) L/h and the “reduction of estimated VCPI in the presence of RIF” value is ~50%. Also, the “mean fraction eliminated via transporters (fT)” value in series [2] stood at 0.76.
Consider `CC(C)c1nc(N(C)S(C)(=O)=O)nc(-c2ccc(F)cc2)c1/C=C/[C@@H](O)C[C@@H](O)CC(=O)O` [RSV, rosuvastatin], for which the “change in Cmax (fold increase) following RIF” value in series [2] (RIF 600 mg co-administered) amounted to 13.2 fold. Also, in series [2] (from AUC with/without RIF), the “range of estimated individual fT” value is recorded as 0.66–0.88. For the same molecule, the “mean fraction eliminated via transporters (fT)” value in series [2] came to 0.79. In addition, in series [3] (RSV alone), the “QRSV, population estimate (SE%)” value is 45.3 (19) L/h; the “V1RSV, population estimate (SE%)” value was 430 (12) L; the “V2RSV, population estimate (SE%)” value is reported as 865 (37) L. In addition, in series [3] (co-administered with RIF), the “QRSV (RIF), population estimate (SE%)” value was 5.03 (18) L/h; the “V1RSV (RIF), population estimate (SE%)” value was 2.98 (50) L; the “V2RSV (RIF), population estimate (SE%)” value is given as 128 (42) L. In series [3] (in vivo), the “contribution of biliary clearance to elimination” value is 94% and the “reduction of V1RSV in the presence of RIF” value was > 90%. In addition, in series [3] (male, human, in vivo, 5 mg), the CL renal is 141 mL/min and the “CLb,RSV, population estimate (SE%)” value was 124 (11) L/h. For the same molecule, the “kaRSV, population estimate (SE%)” value in series [3] (single 5-mg oral dose) was 0.287 (9) h^−1.
As for `Cc1cnc(C(=O)N[C@H]2CCCCC/C=C\[C@@H]3C[C@@]3(C(=O)NS(=O)(=O)C3CC3)NC(=O)[C@@H]3C[C@@H](Oc4nc5ccccc5c5ccccc45)CN3C2=O)cn1` [Paritaprevir], in the series on OATP (inhibitor 150 mg, rosuvastatin 10 mg, ref (17)), the “Fold Change in AUC of rosuvastatin” value is 2.6 fold.
As to `C=C[C@@H]1C[C@]1(NC(=O)[C@@H]1C[C@@H]2CN1C(=O)[C@H](C(C)(C)C)NC(=O)O[C@@H]1C[C@H]1CCCCCc1nc3ccc(OC)cc3nc1O2)C(=O)NS(=O)(=O)C1CC1.O` [Grazoprevir], the “Fold Change in AUC of rosuvastatin” value with OATP (inhibitor 200 mg, rosuvastatin 10 mg, ref (16)) is on record as 1.59 fold.
Turning to `C=C[C@@H]1C[C@]1(NC(=O)[C@@H]1C[C@@H](Oc2ncc(OC)c3ccc(Cl)cc23)CN1C(=O)[C@@H](NC(=O)OC(C)(C)C)C(C)(C)C)C(=O)NS(=O)(=O)C1CC1` [Asunaprevir], in the series with OATP (inhibitor 200 mg, rosuvastatin 10 mg, ref (14)), the “Fold Change in AUC of rosuvastatin” value is 1.41 fold.
In the case of `COC[C@H]1C[C@@H](c2ncc(-c3ccc4c(c3)COc3cc5c(ccc6nc([C@@H]7CC[C@H](C)N7C(=O)[C@@H](NC(=O)OC)C(C)C)[nH]c65)cc3-4)[nH]2)N(C(=O)[C@H](NC(=O)OC)c2ccccc2)C1` [Velpatasvir], the “Fold Change in AUC of rosuvastatin” value in the series on OATP (inhibitor 100 mg, rosuvastatin 10 mg, ref (18)) is 2.69 fold.
With `CCC(C)n1ncn(-c2ccc(N3CCN(c4ccc(OCC5COC(Cn6cncn6)(c6ccc(Cl)cc6Cl)O5)cc4)CC3)cc2)c1=O` (stereo not shown) [Itraconazole], the “Fold Change in AUC of rosuvastatin” value with OATP (inhibitor 200 mg, rosuvastatin 0.025 mg, ref (15)) is given as 1.78 fold.
Turning to `CC[C@H]1OC(=O)[C@H](C)[C@@H](O[C@H]2C[C@@](C)(OC)[C@@H](O)[C@H](C)O2)[C@H](C)[C@@H](O[C@@H]2O[C@H](C)C[C@H](N(C)C)[C@H]2O)[C@](C)(OC)C[C@@H](C)C(=O)[C@H](C)[C@@H](O)[C@]1(C)O` [Clarithromycin], the “Fold Change in AUC of rosuvastatin” value with OATP (inhibitor 500 mg, rosuvastatin 0.025 mg, ref (15)) is on record as 1.56 fold.
Take `COc1ccc2c(O[C@@H]3C[C@H]4C(=O)N[C@]5(C(=O)NS(=O)(=O)C6CC6)C[C@H]5/C=C\CCCCN(C)C(=O)[C@@H]4C3)cc(-c3nc(C(C)C)cs3)nc2c1C` [Simeprevir]: the “Fold Change in AUC of rosuvastatin” value with OATP (inhibitor 150 mg, rosuvastatin 10 mg, ref (19)) was 2.8 fold.
